# Several values for one entry are separate records, joined by “and”; a condition that tells them apart may be missing. Identical values can stand only once.
# Test system: SK-OV-3 multi-cell spheroids, viability
# Test: Anticancer human tumor SK-OV-3 cell line growth inhibition [IpAb];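 for viability, T/C: viability read after seven days of drug exposure; percent of DMSO vehicle control luminescence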
# Details: for viability, T/C: stronger effect = lower value
# Summary of the method: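 Multi-cell spheroids of 60% tumour cells, 25% HUVEC and 15% MSC in ultra-low-attachment U-bottom wells, treated with agents combined with ipatasertib or abemaciclib. Half-log ranges top out near clinical Cmax, or 10 microM when Cmax is unknown.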
# [1] = curve of first compound, second compound 0.01 µM
# [2] = curve of first compound, second compound 0.0316 µM
# [3] = curve of first compound, second compound 0.1 µM
# [4] = curve of first compound, second compound 0.316 µM
# [5] = curve of first compound, second compound 1 µM
# [6] = second compound 0.01 µM, first compound 0.0316 µM
# [7] = second compound 0.01 µM, first compound 0.1 µM
# [8] = second compound 0.0316 µM, first compound 0.0316 µM
# [9] = second compound 0.0316 µM, first compound 0.1 µM
# [10] = second compound 0.1 µM, first compound 0.0316 µM
# [11] = second compound 0.1 µM, first compound 0.1 µM
# [12] = second compound 0.316 µM, first compound 0.0316 µM
# [13] = second compound 0.316 µM, first compound 0.1 µM
# [14] = second compound 1 µM, first compound 0.0316 µM
# [15] = second compound 1 µM, first compound 0.1 µM
structure (smiles),measurement,setting,value
CCCS(=O)(=O)Nc1ccc(F)c(C(=O)c2c[nH]c3ncc(-c4ccc(Cl)cc4)cc23)c1F + CCN1CCN(Cc2ccc(Nc3ncc(F)c(-c4cc(F)c5nc(C)n(C(C)C)c5c4)n3)nc2)CC1,IC50,[1],9390 nM
same,IC50,[2],5140 nM
same,IC50,[3],1240 nM
same,IC50,[4],822 nM
same,IC50,[5],< 31.6 nM
same,"viability, T/C",[6],95.1%
same,"viability, T/C",[7],93.5%
same,"viability, T/C","second compound 0.01 µM, first compound 0.316 µM",89.1%
same,"viability, T/C","second compound 0.01 µM, first compound 1 µM",85.5%
same,"viability, T/C","second compound 0.01 µM, first compound 3.16 µM",80.3%
same,"viability, T/C","second compound 0.01 µM, first compound 10 µM",48%
same,"viability, T/C",[8],70.1%
same,"viability, T/C",[9],69.7%
same,"viability, T/C","second compound 0.0316 µM, first compound 0.316 µM",70.3%
same,"viability, T/C","second compound 0.0316 µM, first compound 1 µM",68.1%
same,"viability, T/C","second compound 0.0316 µM, first compound 3.16 µM",65.3%
same,"viability, T/C","second compound 0.0316 µM, first compound 10 µM",29.3%
same,"viability, T/C",[10],55.3%
same,"viability, T/C",[11],59.5%
same,"viability, T/C","second compound 0.1 µM, first compound 0.316 µM",57.4%
same,"viability, T/C","second compound 0.1 µM, first compound 1 µM",51.7%
same,"viability, T/C","second compound 0.1 µM, first compound 3.16 µM",39.6%
same,"viability, T/C","second compound 0.1 µM, first compound 10 µM",20.1%
same,"viability, T/C",[12],53.2%
same,"viability, T/C",[13],55.7%
same,"viability, T/C","second compound 0.316 µM, first compound 0.316 µM",52.9%
same,"viability, T/C","second compound 0.316 µM, first compound 1 µM",46.5%
same,"viability, T/C","second compound 0.316 µM, first compound 3.16 µM",44.1%
same,"viability, T/C","second compound 0.316 µM, first compound 10 µM",25.4%
same,"viability, T/C",[14],41.2%
same,"viability, T/C",[15],44.4%
same,"viability, T/C","second compound 1 µM, first compound 0.316 µM",48.1%
same,"viability, T/C","second compound 1 µM, first compound 1 µM",38.6%
same,"viability, T/C","second compound 1 µM, first compound 3.16 µM",36.8%
same,"viability, T/C","second compound 1 µM, first compound 10 µM",24.2%
Cn1cnc2c(F)c(Nc3ccc(Br)cc3Cl)c(C(=O)NOCCO)cc21 + CCN1CCN(Cc2ccc(Nc3ncc(F)c(-c4cc(F)c5nc(C)n(C(C)C)c5c4)n3)nc2)CC1,IC50,[1],1670 nM
same,IC50,[2],1180 nM
same,IC50,[3],390 nM
same,IC50,[4],167 nM
same,IC50,[5],< 9.49 nM
same,"viability, T/C","second compound 0.01 µM, first compound 0.00949 µM",90.9%
same,"viability, T/C","second compound 0.01 µM, first compound 0.03 µM",95.4%
same,"viability, T/C","second compound 0.01 µM, first compound 0.0949 µM",98%
same,"viability, T/C","second compound 0.01 µM, first compound 0.3 µM",96%
same,"viability, T/C","second compound 0.01 µM, first compound 0.949 µM",65.5%
same,"viability, T/C","second compound 0.01 µM, first compound 3 µM",33.9%
same,"viability, T/C","second compound 0.0316 µM, first compound 0.00949 µM",80.6%
same,"viability, T/C","second compound 0.0316 µM, first compound 0.03 µM",79.5%
same,"viability, T/C","second compound 0.0316 µM, first compound 0.0949 µM",84.1%
same,"viability, T/C","second compound 0.0316 µM, first compound 0.3 µM",75.1%
same,"viability, T/C","second compound 0.0316 µM, first compound 0.949 µM",55.5%
same,"viability, T/C","second compound 0.0316 µM, first compound 3 µM",27.1%
same,"viability, T/C","second compound 0.1 µM, first compound 0.00949 µM",59.8%
same,"viability, T/C","second compound 0.1 µM, first compound 0.03 µM",59.1%
same,"viability, T/C","second compound 0.1 µM, first compound 0.0949 µM",66.8%
same,"viability, T/C","second compound 0.1 µM, first compound 0.3 µM",51.2%
same,"viability, T/C","second compound 0.1 µM, first compound 0.949 µM",38.6%
same,"viability, T/C","second compound 0.1 µM, first compound 3 µM",28.2%
same,"viability, T/C","second compound 0.316 µM, first compound 0.00949 µM",61.7%
same,"viability, T/C","second compound 0.316 µM, first compound 0.03 µM",63.7%
same,"viability, T/C","second compound 0.316 µM, first compound 0.0949 µM",49.1%
same,"viability, T/C","second compound 0.316 µM, first compound 0.3 µM",47.4%
same,"viability, T/C","second compound 0.316 µM, first compound 0.949 µM",38.8%
same,"viability, T/C","second compound 0.316 µM, first compound 3 µM",28.4%
same,"viability, T/C","second compound 1 µM, first compound 0.00949 µM",41.8%
same,"viability, T/C","second compound 1 µM, first compound 0.03 µM",50.6%
same,"viability, T/C","second compound 1 µM, first compound 0.0949 µM",50.8%
same,"viability, T/C","second compound 1 µM, first compound 0.3 µM",44.6%
same,"viability, T/C","second compound 1 µM, first compound 0.949 µM",35.9%
same,"viability, T/C","second compound 1 µM, first compound 3 µM",24.2%
CCCS(=O)(=O)Nc1ccc(F)c(C(=O)c2c[nH]c3ncc(-c4ccc(Cl)cc4)cc23)c1F,"viability, T/C",compound 0.0316 µM,116% and 100%
same,"viability, T/C",compound 0.1 µM,101% and 100%
same,"viability, T/C",compound 0.316 µM,108%
same,"viability, T/C",compound 1 µM,102% and 108%
same,"viability, T/C",compound 3.16 µM,89.4% and 88.4%
same,"viability, T/C",compound 10 µM,33.9% and 49.1%
same,IC50,curve of compound,7130 nM and 9740 nM
Cn1nccc1Nc1nccc(-c2ccn(C(CO)c3ccc(Cl)c(F)c3)c(=O)c2)n1 (configuration not stated),"viability, T/C",compound 0.0316 µM,101% and 98.5%
same,"viability, T/C",compound 0.1 µM,103% and 108%
same,"viability, T/C",compound 0.316 µM,108% and 116%
same,"viability, T/C",compound 1 µM,126%
same,"viability, T/C",compound 3.16 µM,94.8% and 100%
same,"viability, T/C",compound 10 µM,52.2% and 48.9%
same,IC50,curve of compound,> 10000 nM and 9730 nM
Cc1nc(NC(=O)N2CCCC2C(N)=O)sc1-c1ccnc(C(C)(C)C(F)(F)F)c1 (configuration not stated),"viability, T/C",compound 0.0316 µM,91.9% and 91.3%
same,"viability, T/C",compound 0.1 µM,78.5% and 80.2%
same,"viability, T/C",compound 0.316 µM,47.3% and 49%
same,"viability, T/C",compound 1 µM,20.7% and 26.9%
same,"viability, T/C",compound 3.16 µM,10.9% and 10.7%
same,"viability, T/C",compound 10 µM,5.21% and 4.93%
same,IC50,curve of compound,291 nM and 337 nM
Cn1cnc2c(F)c(Nc3ccc(Br)cc3Cl)c(C(=O)NOCCO)cc21,"viability, T/C",compound 0.00949 µM,96% and 97.7%
same,"viability, T/C",compound 0.03 µM,106% and 99.9%
same,"viability, T/C",compound 0.0949 µM,98% and 112%
same,"viability, T/C",compound 0.3 µM,104% and 108%
same,"viability, T/C",compound 0.949 µM,73.2% and 80.4%
same,"viability, T/C",compound 3 µM,39.5% and 29.2%
same,IC50,curve of compound,2100 nM and 1880 nM
Cn1ncc(Cl)c1-c1cc(C(=O)NC(CN)Cc2cccc(F)c2)sc1Cl (configuration not stated),"viability, T/C",compound 0.0316 µM,73.4% and 80.3%
same,"viability, T/C",compound 0.1 µM,52.8% and 48.3%
same,"viability, T/C",compound 0.316 µM,27.5% and 26.4%
same,"viability, T/C",compound 1 µM,16.1% and 19%
same,"viability, T/C",compound 3.16 µM,8.76% and 8.97%
same,"viability, T/C",compound 10 µM,0.31% and 1.17%
same,IC50,curve of compound,106 nM and 96.1 nM
Cn1ncnc1[C@H]1c2n[nH]c(=O)c3cc(F)cc(c23)N[C@@H]1c1ccc(F)cc1 + CCN1CCN(Cc2ccc(Nc3ncc(F)c(-c4cc(F)c5nc(C)n(C(C)C)c5c4)n3)nc2)CC1,IC50,[1],> 100 nM
same,IC50,[2],> 100 nM
same,IC50,[3],> 100 nM
same,IC50,[4],> 100 nM
same,IC50,[5],< 0.316 nM
same,"viability, T/C","second compound 0.01 µM, first compound 0.000316 µM",99.8%
same,"viability, T/C","second compound 0.01 µM, first compound 0.001 µM",93.9%
same,"viability, T/C","second compound 0.01 µM, first compound 0.00316 µM",86.6%
same,"viability, T/C","second compound 0.01 µM, first compound 0.01 µM",86.3%
same,"viability, T/C",[6],83.4%
same,"viability, T/C",[7],60.2%
same,"viability, T/C","second compound 0.0316 µM, first compound 0.000316 µM",75.2%
same,"viability, T/C","second compound 0.0316 µM, first compound 0.001 µM",81.6%
same,"viability, T/C","second compound 0.0316 µM, first compound 0.00316 µM",70.7%
same,"viability, T/C","second compound 0.0316 µM, first compound 0.01 µM",63.4%
same,"viability, T/C",[8],66.3%
same,"viability, T/C",[9],58.4%
same,"viability, T/C","second compound 0.1 µM, first compound 0.000316 µM",60.7%
same,"viability, T/C","second compound 0.1 µM, first compound 0.001 µM",59.5%
same,"viability, T/C","second compound 0.1 µM, first compound 0.00316 µM",56.4%
same,"viability, T/C","second compound 0.1 µM, first compound 0.01 µM",53.4%
same,"viability, T/C",[10],53.2%
same,"viability, T/C",[11],50.5%
same,"viability, T/C","second compound 0.316 µM, first compound 0.000316 µM",55.8%
same,"viability, T/C","second compound 0.316 µM, first compound 0.001 µM",56.3%
same,"viability, T/C","second compound 0.316 µM, first compound 0.00316 µM",52.1%
same,"viability, T/C","second compound 0.316 µM, first compound 0.01 µM",52%
same,"viability, T/C",[12],51.4%
same,"viability, T/C",[13],53.3%
same,"viability, T/C","second compound 1 µM, first compound 0.000316 µM",49.5%
same,"viability, T/C","second compound 1 µM, first compound 0.001 µM",45.1%
same,"viability, T/C","second compound 1 µM, first compound 0.00316 µM",43.2%
same,"viability, T/C","second compound 1 µM, first compound 0.01 µM",46.4%
same,"viability, T/C",[14],45.4%
same,"viability, T/C",[15],43%
Cn1ncnc1[C@H]1c2n[nH]c(=O)c3cc(F)cc(c23)N[C@@H]1c1ccc(F)cc1,"viability, T/C",compound 0.000316 µM,108% and 97.8%
same,"viability, T/C",compound 0.001 µM,101% and 102%
same,"viability, T/C",compound 0.00316 µM,101% and 98.3%
same,"viability, T/C",compound 0.01 µM,98.5% and 88.4%
same,"viability, T/C",compound 0.0316 µM,87.8% and 86.8%
same,"viability, T/C",compound 0.1 µM,73.5% and 68.5%
same,IC50,curve of compound,> 100 nM

# From PubChem BioAssay AID2060325 (Molecular Pharmacology Branch, DTP, NCI, 2025)
